Laboratory results: the NIST ThermoML archive (doi:10.1021/acs.jced.8b00132)
Values joined by “and” are separate entries in the source; they are usually repeats but may differ in a detail not shown here. Equal entries are not always repeated. Numbers after ± are expanded uncertainties.

O=C(C(F)(F)C(F)(F)F)C(F)(C(F)(F)F)C(F)(F)F [dodecafluoro-2-methylpentan-3-one]
Conditions	thermal conductivity
303.37 K, 4422 kPa, Liquid, transient hot wire	0.05844 ± 0.0012 W/m/K
303.37 K, 4436 kPa, Liquid, transient hot wire	0.05841 ± 0.0012 W/m/K
303.38 K, 22430 kPa, Liquid, transient hot wire	0.06522 ± 0.0013 W/m/K
303.38 K, 22431 kPa, Liquid, transient hot wire	0.06529 ± 0.0014 W/m/K
303.46 K, 36 kPa, Gas, transient hot wire	0.01187 ± 0.0047 W/m/K
303.46 K, 38 kPa, Gas, transient hot wire	0.01198 ± 0.00076 W/m/K
303.46 K, 91 kPa, Liquid, transient hot wire	0.05636 ± 0.0012 W/m/K
303.46 K, 92 kPa, Liquid, transient hot wire	0.05637 ± 0.0012 W/m/K
311.78 K, 60 kPa, Gas, transient hot wire	0.01276 ± 0.0008 W/m/K
311.78 K, 63 kPa, Gas, transient hot wire	0.01265 ± 0.00079 W/m/K
311.79 K, 63 kPa, Gas, transient hot wire	0.01255 ± 0.00078 W/m/K
311.95 K, 34 kPa, Gas, transient hot wire	0.01258 ± 0.00079 W/m/K
312.1 K, 61 kPa, Gas, transient hot wire	0.01276 ± 0.00079 W/m/K
312.11 K, 63 kPa, Gas, transient hot wire	0.0127 ± 0.00079 W/m/K
312.12 K, 63 kPa, Gas, transient hot wire	0.01261 ± 0.00078 W/m/K
312.3 K, 34 kPa, Gas, transient hot wire	0.01253 ± 0.00079 W/m/K
312.43 K, 61 kPa, Gas, transient hot wire	0.01283 ± 0.0008 W/m/K
312.43 K, 63 kPa, Gas, transient hot wire	0.01278 ± 0.0008 W/m/K
312.46 K, 63 kPa, Gas, transient hot wire	0.01291 ± 0.00081 W/m/K
312.66 K, 34 kPa, Gas, transient hot wire	0.01257 ± 0.00079 W/m/K
312.81 K, 61 kPa, Gas, transient hot wire	0.01287 ± 0.00082 W/m/K
312.81 K, 63 kPa, Gas, transient hot wire	0.01297 ± 0.00082 W/m/K
312.83 K, 63 kPa, Gas, transient hot wire	0.01281 ± 0.00081 W/m/K
313.06 K, 34 kPa, Gas, transient hot wire	0.01264 ± 0.0008 W/m/K
313.22 K, 61 kPa, Gas, transient hot wire	0.01297 ± 0.00082 W/m/K
313.22 K, 63 kPa, Gas, transient hot wire	0.01291 ± 0.00081 W/m/K
313.24 K, 63 kPa, Gas, transient hot wire	0.01285 ± 0.0008 W/m/K
313.49 K, 34 kPa, Gas, transient hot wire	0.01265 ± 0.0008 W/m/K
315 K, 42 kPa, Gas, hot wire	0.01266 ± 0.00059 W/m/K and 0.01273 ± 0.0006 W/m/K
315.01 K, 24 kPa, Gas, hot wire	0.01262 ± 0.00059 W/m/K and 0.01267 ± 0.00059 W/m/K
315.03 K, 68 kPa, Gas, hot wire	0.01269 ± 0.0006 W/m/K
315.05 K, 69 kPa, Gas, hot wire	0.01239 ± 0.0006 W/m/K
315.06 K, 73 kPa, Gas, hot wire	0.01282 ± 0.00061 W/m/K
315.08 K, 73 kPa, Gas, hot wire	0.0128 ± 0.0006 W/m/K
315.18 K, 42 kPa, Gas, hot wire	0.0127 ± 0.0006 W/m/K
315.19 K, 24 kPa, Gas, hot wire	0.01259 ± 0.00059 W/m/K
315.23 K, 68 kPa, Gas, hot wire	0.01265 ± 0.00059 W/m/K
315.26 K, 68 kPa, Gas, hot wire	0.01263 ± 0.00059 W/m/K
315.26 K, 73 kPa, Gas, hot wire	0.01275 ± 0.0006 W/m/K and 0.01272 ± 0.0006 W/m/K
315.38 K, 24 kPa, Gas, hot wire	0.01262 ± 0.00059 W/m/K
315.39 K, 24 kPa, Gas, hot wire	0.01261 ± 0.00059 W/m/K
315.39 K, 42 kPa, Gas, hot wire	0.01258 ± 0.00059 W/m/K and 0.0126 ± 0.00059 W/m/K
315.45 K, 73 kPa, Gas, hot wire	0.01275 ± 0.0006 W/m/K and 0.01277 ± 0.0006 W/m/K
315.48 K, 67 kPa, Gas, hot wire	0.01259 ± 0.00059 W/m/K
315.48 K, 68 kPa, Gas, hot wire	0.01258 ± 0.00059 W/m/K
315.6 K, 24 kPa, Gas, hot wire	0.01263 ± 0.00059 W/m/K
315.6 K, 42 kPa, Gas, hot wire	0.01262 ± 0.00059 W/m/K
315.61 K, 41 kPa, Gas, hot wire	0.01258 ± 0.00059 W/m/K
315.65 K, 73 kPa, Gas, hot wire	0.01278 ± 0.0006 W/m/K
315.66 K, 73 kPa, Gas, hot wire	0.01275 ± 0.0006 W/m/K
315.7 K, 67 kPa, Gas, hot wire	0.01258 ± 0.00059 W/m/K and 0.01255 ± 0.00059 W/m/K
315.82 K, 24 kPa, Gas, hot wire	0.01264 ± 0.00059 W/m/K and 0.01263 ± 0.00059 W/m/K
315.84 K, 41 kPa, Gas, hot wire	0.01259 ± 0.00059 W/m/K
315.85 K, 42 kPa, Gas, hot wire	0.01252 ± 0.00059 W/m/K
315.87 K, 73 kPa, Gas, hot wire	0.01277 ± 0.00061 W/m/K and 0.01278 ± 0.00061 W/m/K
315.91 K, 67 kPa, Gas, hot wire	0.01259 ± 0.00059 W/m/K
315.92 K, 67 kPa, Gas, hot wire	0.01258 ± 0.00059 W/m/K
321.61 K, 79 kPa, Gas, transient hot wire	0.01361 ± 0.00085 W/m/K
321.66 K, 65 kPa, Gas, transient hot wire	0.01365 ± 0.00085 W/m/K
321.69 K, 64 kPa, Gas, transient hot wire	0.01346 ± 0.00084 W/m/K
321.92 K, 78 kPa, Gas, transient hot wire	0.01359 ± 0.00084 W/m/K
321.97 K, 66 kPa, Gas, transient hot wire	0.01368 ± 0.0014 W/m/K
322.01 K, 64 kPa, Gas, transient hot wire	0.01355 ± 0.00084 W/m/K
322.24 K, 77 kPa, Gas, transient hot wire	0.01349 ± 0.00084 W/m/K
322.3 K, 66 kPa, Gas, transient hot wire	0.01358 ± 0.001 W/m/K
322.35 K, 64 kPa, Gas, transient hot wire	0.01367 ± 0.00085 W/m/K
322.6 K, 77 kPa, Gas, transient hot wire	0.0137 ± 0.00085 W/m/K
322.68 K, 66 kPa, Gas, transient hot wire	0.01369 ± 0.00099 W/m/K
322.7 K, 62 kPa, Gas, transient hot wire	0.01363 ± 0.00085 W/m/K
322.99 K, 77 kPa, Gas, transient hot wire	0.01375 ± 0.00086 W/m/K
323.07 K, 66 kPa, Gas, transient hot wire	0.01363 ± 0.00085 W/m/K
323.09 K, 62 kPa, Gas, transient hot wire	0.0139 ± 0.00087 W/m/K
329.07 K, 105 kPa, Gas, hot wire	0.01379 ± 0.00065 W/m/K and 0.0138 ± 0.00065 W/m/K
329.1 K, 72 kPa, Gas, hot wire	0.01387 ± 0.00066 W/m/K
329.1 K, 73 kPa, Gas, hot wire	0.01371 ± 0.00065 W/m/K and 0.01367 ± 0.00065 W/m/K
329.12 K, 72 kPa, Gas, hot wire	0.01364 ± 0.00065 W/m/K
329.19 K, 27 kPa, Gas, hot wire	0.01341 ± 0.00063 W/m/K
329.19 K, 120 kPa, Gas, hot wire	0.01389 ± 0.00065 W/m/K
329.2 K, 26 kPa, Gas, hot wire	0.01335 ± 0.00063 W/m/K
329.21 K, 120 kPa, Gas, hot wire	0.01385 ± 0.00065 W/m/K
329.22 K, 27 kPa, Gas, hot wire	0.01411 ± 0.00067 W/m/K
329.23 K, 26 kPa, Gas, hot wire	0.014 ± 0.00066 W/m/K
329.23 K, 105 kPa, Gas, hot wire	0.01384 ± 0.00065 W/m/K and 0.01389 ± 0.00065 W/m/K
329.25 K, 72 kPa, Gas, hot wire	0.01368 ± 0.00064 W/m/K
